Assay [1] deals with T1, AKT2 (Homo sapiens, UniProt P31751).
T1 construct: expressed in transfected cells; host or cells: HEK293
Nature of the assay: Live cell AKT2 target engagement by NanoBRET competitive probe displacement in HEK293 cells. As to conditions: 2 h at 37° C., read-out: AKT2 IC50. The format is binding. On the technique in general: In BRET a luciferase serves as donor, and the signal depends on an acceptor being close.

In assay [2] the target is T2, AKT1 WT (Homo sapiens, UniProt P31749).
T2 construct: expressed in transfected cells; host or cells: HEK293
T2 sequence (P31749 whole entry): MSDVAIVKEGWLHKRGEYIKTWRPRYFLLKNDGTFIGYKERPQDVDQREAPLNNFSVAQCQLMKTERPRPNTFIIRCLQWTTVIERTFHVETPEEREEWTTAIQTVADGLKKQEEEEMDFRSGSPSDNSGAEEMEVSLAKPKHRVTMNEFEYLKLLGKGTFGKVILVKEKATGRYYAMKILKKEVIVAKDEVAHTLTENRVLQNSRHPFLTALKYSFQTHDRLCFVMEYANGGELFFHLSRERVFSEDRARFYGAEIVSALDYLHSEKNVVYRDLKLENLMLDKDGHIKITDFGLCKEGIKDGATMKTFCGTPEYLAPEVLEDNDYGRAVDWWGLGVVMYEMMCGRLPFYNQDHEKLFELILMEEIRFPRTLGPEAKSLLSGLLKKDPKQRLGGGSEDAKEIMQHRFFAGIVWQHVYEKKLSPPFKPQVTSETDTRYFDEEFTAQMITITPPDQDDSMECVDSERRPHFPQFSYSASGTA
Nature of the assay: Live cell AKT1 WT target engagement by NanoBRET competitive probe displacement in HEK293 cells. It counts as binding. As to conditions: 2 h at 37° C., read-out: AKT1 WT IC50.

[3] abbreviates: NanoBRET competitive probe displacement, live HEK293 cells.
[4] abbreviates: NanoBRET live cell target engagement, HEK293 cells.

Like-named read-outs stand apart in the source and are kept apart here.

T1 sequence (P31751 whole entry): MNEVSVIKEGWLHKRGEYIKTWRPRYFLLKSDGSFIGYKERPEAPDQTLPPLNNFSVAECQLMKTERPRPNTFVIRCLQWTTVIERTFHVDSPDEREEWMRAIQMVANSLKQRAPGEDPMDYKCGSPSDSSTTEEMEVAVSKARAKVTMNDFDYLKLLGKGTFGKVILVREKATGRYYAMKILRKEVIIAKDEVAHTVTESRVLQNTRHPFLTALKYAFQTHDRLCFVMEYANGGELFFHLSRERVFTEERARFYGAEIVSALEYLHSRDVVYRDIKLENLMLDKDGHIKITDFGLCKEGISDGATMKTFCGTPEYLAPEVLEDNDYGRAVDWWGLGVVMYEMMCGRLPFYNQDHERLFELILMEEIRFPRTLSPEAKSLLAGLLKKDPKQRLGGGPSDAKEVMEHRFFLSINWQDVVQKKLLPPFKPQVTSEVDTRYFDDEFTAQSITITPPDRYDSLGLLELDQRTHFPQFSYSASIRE

Usually IC50 stands for the point on the concentration scale where inhibition reaches its midpoint. Consider `Nc1ncccc1-c1nc2ccc(-n3nccn3)nc2n1-c1ccc2c(c1)CC[C@@H]2NC(=O)c1cnns1` [Compound 436], for which the IC50 in assay [1] (setting [3]) worked out at 4660 nM; in assay [2] (setting [3]) it was 40 nM.

For `Cn1nc(C(=O)N[C@H]2CCc3cc(-n4c(-c5cccnc5N)nc5ccc(-n6cccn6)nc54)ccc32)cc1C(F)F` [Compound 266], the figures for the IC50 in assay [1] (setting [4]) and in assay [2] (setting [4]) were 468 nM and 18.3 nM, respectively.

As for `Cc1cncc(C(=O)N[C@H]2CCc3cc(-n4c(-c5cccnc5N)nc5ccc(-n6cccn6)nc54)ccc32)n1` [Compound 186], the results for the half-maximal inhibitory concentration (IC50) in assay [1] (setting [4]) and in assay [2] (setting [4]) were 3270 nM and 76.3 nM, respectively.

With `Nc1ncccc1-c1nc2ccc(-n3cccn3)nc2n1-c1ccc2c(c1)CC[C@@H]2n1ccnc1` [Compound 273, (S)-3-(3-(1-(1H-imidazol-1-yl)-2,3-dihydro-1H-inden-5-yl)-5-(1H-pyrazol-1-yl)-3H-imidazo[4,5-b]pyridin-2-yl)pyridin-2-amine], the IC50 worked out at 165 nM in assay [1] (setting [4]) and 11.6 nM in assay [2] (setting [4]).

As to `Cc1ccc(C(=O)N[C@H]2CCc3cc(-n4c(-c5cccnc5N)nc5ccc(-n6ccc(OC(F)F)n6)nc54)ccc32)cn1` [Compound 535], the values for the IC50 in assay [1] (setting [3]) and in assay [2] (setting [3]) were 42.1 nM and 6.42 nM, respectively.

For the compound `Nc1ncccc1-c1nc2ccc(-n3ccc(OC4COC4)n3)nc2n1-c1ccc2c(c1)CC[C@@H]2NC1CCN(C(=O)C2CC2)CC1` [Compound 567], the IC50 in assay [1] (setting [3]) turned out to be 455 nM; in assay [2] (setting [3]), 11.3 nM.

Consider `Nc1ncccc1-c1nc2ccc(-n3cccn3)nc2n1-c1ccc2c(c1)CC[C@@H]2NC(=O)c1cnc2c(c1)CCC2(F)F` [Compound 66], for which the IC50 in assay [1] (setting [4]) was determined as 15 nM; in assay [2] (setting [4]), 8.95 nM.

In the case of `Cn1ccc(-c2cn([C@H]3CCc4cc(-n5c(-c6cccnc6N)nc6ccc(-n7cccn7)nc65)ccc43)nn2)n1` [Compound 197], the half-maximal inhibitory concentration (IC50) worked out at 95.3 nM in assay [1] (setting [4]) and 14.7 nM in assay [2] (setting [4]).

As to `Nc1ncccc1-c1nc2ccc(C#C[C@H]3CCO3)nc2n1-c1ccc2c(c1)CC[C@@H]2NC(=O)c1ccc(C(F)F)nc1` [Compound 453], the 50% inhibitory concentration (IC50) in assay [1] (setting [3]) came out at 3770 nM; in assay [2] (setting [3]) it was 28 nM.

As to `COc1cc(C(=O)N[C@H]2CCc3cc(-n4c(-c5cccnc5N)nc5ccc(-n6cccn6)nc54)ccc32)ccc1F` [Compound 336], the half-maximal inhibitory concentration (IC50) in assay [1] (setting [4]) was determined as 305 nM; in assay [2] (setting [4]), 17.7 nM.

Consider `Nc1ncccc1-c1nc2ccc(-n3cccn3)nc2n1-c1ccc2c(c1)CC[C@@H]2n1cc(C2CCO2)nn1` (some centres unmarked) [Compound 354], for which the results for the IC50 in assay [1] (setting [4]) and in assay [2] (setting [4]) were 900 nM and 39.8 nM, respectively.

Turning to `COc1ncc(C(=O)N[C@H]2CCc3cc(-n4c(-c5cccnc5N)nc5ccc(-n6cccn6)nc54)ccc32)cc1F` [Compound 162], the concentration for half-maximal inhibition (IC50) in assay [1] (setting [4]) came to 37.8 nM; in assay [2] (setting [4]) it was 9.12 nM.

Regarding `Cc1nnsc1C(=O)N[C@H]1CCc2cc(-n3c(-c4cccnc4N)nc4ccc(-n5cccn5)nc43)ccc21` [Compound 438], the half-maximal inhibitory concentration (IC50) in assay [1] (setting [3]) stood at 795 nM; in assay [2] (setting [3]) it was 25.3 nM.

In the case of `Cc1ccc(C(=O)N[C@H]2CCc3cc(-n4c(-c5cccnc5N)nc5ccc(-n6ncnc6C)nc54)ccc32)cn1` [Compound 418, (S)—N-(5-(2-(2-aminopyridin-3-yl)-5-(5-methyl-1H-1,2,4-triazol-1-yl)-3H-imidazo[4,5-b]pyridin-3-yl)-2,3-dihydro-1H-inden-1-yl)-6-methylnicotinamide], the figures for the half-maximal inhibitory concentration (IC50) in assay [1] (setting [3]) and in assay [2] (setting [3]) were 2680 nM and 76 nM, respectively.

In the case of `C#Cc1cc(C(=O)N[C@H]2CCc3cc(-n4c(-c5cccnc5N)nc5ccc(-n6cccn6)nc54)ccc32)ccn1` [Compound 105], the IC50 in assay [1] (setting [4]) is 109 nM; in assay [2] (setting [4]) it was 11.2 nM.

Consider `Cc1ncncc1C(=O)N[C@H]1CCc2cc(-n3c(-c4cccnc4N)nc4ccc(-n5cccn5)nc43)ccc21` [Compound 117], for which the figures for the IC50 in assay [1] (setting [4]) and in assay [2] (setting [4]) were 103 nM and 5.32 nM, respectively.

Consider `CNC(=O)c1cccc(C(=O)N[C@H]2CCc3cc(-n4c(-c5cccnc5N)nc5ccc(-n6cccn6)nc54)ccc32)c1` [Compound 292], for which the half-maximal inhibitory concentration (IC50) in assay [1] (setting [4]) came to 73.2 nM; in assay [2] (setting [4]), 12.9 nM.

Consider `Nc1ncccc1-c1nc2ccc(C#CC3CCC3)nc2n1-c1ccc2c(c1)CC[C@@H]2NC(=O)c1ccc(C(F)F)nc1` [Compound 226], for which the half-maximal inhibitory concentration (IC50) was determined as 2020 nM in assay [1] (setting [4]) and 45.5 nM in assay [2] (setting [4]).

Regarding `Nc1ncccc1-c1nc2ccc(C#CC3CCCC3)nc2n1-c1ccc2c(c1)CC[C@@H]2NC(=O)c1ccc(C(F)F)nc1` [Compound 460], the concentration for half-maximal inhibition (IC50) in assay [1] (setting [3]) was determined as 6180 nM; in assay [2] (setting [3]) it was 33.6 nM.

For `Nc1ncccc1-c1nc2ccc(-n3cccn3)nc2n1-c1ccc2c(c1)CC[C@@H]2NC(=O)c1cc(F)c(F)c(F)c1` [Compound 343], the IC50 in assay [1] (setting [4]) turned out to be 240 nM; in assay [2] (setting [4]) it was 16.6 nM.

As for `Nc1ncccc1-c1nc2ccc(-n3cccn3)nc2n1-c1ccc2c(c1)CC[C@H]2n1ccnn1` [Compound 227], the figures for the IC50 in assay [1] (setting [4]) and in assay [2] (setting [4]) were over 10000 nM and over 1000 nM, respectively.

As for `Nc1ncccc1-c1nc2ccc(-n3cccn3)nc2n1-c1ccc2c(c1)CC[C@@H]2N1CCCCC1` [Compound 342, (S)-3-(3-(1-(piperidin-1-yl)-2,3-dihydro-1H-inden-5-yl)-5-(1H-pyrazol-1-yl)-3H-imidazo[4,5-b]pyridin-2-yl)pyridin-2-amine], the IC50 in assay [1] (setting [4]) was 979 nM; in assay [2] (setting [4]), 43.9 nM.

Turning to `Nc1ncccc1-c1nc2ccc(N3CCOCC3)nc2n1-c1ccc2c(c1)CC[C@@H]2NC(=O)c1ccc(C(F)F)nc1` [Compound 136], the IC50 in assay [1] (setting [4]) amounted to 284 nM; in assay [2] (setting [4]), 19.8 nM.

Consider `Nc1ncccc1-c1nc2ccc(-n3cccn3)nc2n1-c1ccc2c(c1)CC[C@@H]2NC(=O)[C@@H]1CCO1` [Compound 373], for which the IC50 came out at 9910 nM in assay [1] (setting [4]) and 704 nM in assay [2] (setting [4]).

In the case of `Nc1ncccc1-c1nc2ccc(-n3cccn3)nc2n1-c1ccc2c(c1)CC[C@@H]2NC1CCc2nc(C(F)F)sc21` (some centres unmarked) [Compound 600], the IC50 in assay [1] (setting [3]) is 7070 nM; in assay [2] (setting [3]), 418 nM.

As for `N[C@@H]1c2ccc(-n3c(-c4ccccc4F)nc4ccc(-n5ccc(N6CCOCC6)n5)nc43)cc2CC1F` (some centres unmarked) [Compound 571], the results for the half-maximal inhibitory concentration (IC50) in assay [1] (setting [3]) and in assay [2] (setting [3]) were 176 nM and 2.22 nM, respectively.

In the case of `Nc1ncccc1-c1nc2ccc(-n3cccn3)nc2n1-c1ccc2c(c1)CC[C@@H]2n1cnnc1` [Compound 248, (S)-3-(3-(1-(4H-1,2,4-triazol-4-yl)-2,3-dihydro-1H-inden-5-yl)-5-(1H-pyrazol-1-yl)-3H-imidazo[4,5-b]pyridin-2-yl)pyridin-2-amine], the IC50 in assay [1] (setting [4]) came to 107 nM; in assay [2] (setting [4]) it was 20.2 nM.

`Nc1ncccc1-c1nc2ccc(-n3ccc(OC(F)F)n3)nc2n1-c1ccc2c(c1)CC[C@@H]2NC1[C@@H]2COC[C@H]1CN(C(=O)C1CC1)C2` (some centres unmarked) [Compound 561]: the IC50 in assay [1] (setting [3]) is 3090 nM; in assay [2] (setting [3]) it was 93.3 nM.

Take `CN(CCC1CC1)[C@H]1CCc2cc(-n3c(-c4cccnc4N)nc4ccc(-n5cccn5)nc43)ccc21` [Compound 458]: the IC50 in assay [1] (setting [3]) is 2800 nM; in assay [2] (setting [3]), 93.4 nM.

Turning to `CC#Cc1ccc2nc(-c3cccnc3N)n(-c3ccc4c(c3)CC[C@@H]4NC(=O)c3ccc(C(F)F)nc3)c2n1` [Compound 405], the concentration for half-maximal inhibition (IC50) in assay [1] (setting [3]) stood at 1580 nM; in assay [2] (setting [3]) it was 46.2 nM.

`Nc1ncccc1-c1nc2ccc(-n3nccn3)nc2n1-c1ccc2c(c1)CC[C@@H]2NCc1ccc(C(F)F)nc1` [Compound 234]: the results for the IC50 in assay [1] (setting [4]) and in assay [2] (setting [4]) were 4550 nM and 168 nM, respectively.

As for `Nc1ncccc1-c1nc2ccc(-n3cccn3)nc2n1-c1ccc2c(c1)CC[C@@H]2NC1CCc2cnccc21` (some centres unmarked) [Compound 473], the 50% inhibitory concentration (IC50) worked out at 28 nM in assay [1] (setting [3]) and 19 nM in assay [2] (setting [3]).

For `Cc1cnc(C)c(C(=O)N[C@H]2CCc3cc(-n4c(-c5cccnc5N)nc5ccc(-n6cccn6)nc54)ccc32)c1` [Compound 137], the IC50 in assay [1] (setting [4]) is 174 nM; in assay [2] (setting [4]), 21.5 nM.

Regarding `COc1cc(C(=O)N[C@H]2CCc3cc(-n4c(-c5cccnc5N)nc5ccc(-n6cccn6)nc54)ccc32)cnn1` [Compound 377], the half-inhibitory concentration (IC50) amounted to 22.2 nM in assay [1] (setting [4]) and 2.9 nM in assay [2] (setting [4]).

Consider `CS(=O)(=O)Nc1ccn(-c2ccc3nc(-c4cccnc4N)n(-c4ccc5c(c4)CC[C@@H]5NC4CCN(C(=O)C5CC5)CC4)c3n2)n1` [Compound 582], for which the values for the IC50 in assay [1] (setting [3]) and in assay [2] (setting [3]) were over 10000 nM and over 1000 nM, respectively.

For the compound `Nc1ncccc1-c1nc2ccc(-n3cccn3)nc2n1-c1ccc2c(c1)CC[C@@H]2NC1CCc2cnccc2C1` (some centres unmarked) [Compound 464], the IC50 in assay [1] (setting [3]) was found to be 167 nM; in assay [2] (setting [3]) it was 19.2 nM.

`COc1cnn(-c2ccc3nc(-c4cccnc4N)n(-c4ccc5c(c4)CC[C@@H]5NC(=O)c4cnc(C(F)F)s4)c3n2)n1` [Compound 594]: the figures for the IC50 in assay [1] (setting [3]) and in assay [2] (setting [3]) were 2690 nM and 27.6 nM, respectively.

For `Cc1ncccc1C(=O)N[C@@H]1c2ccc(-n3c(-c4cccnc4N)nc4ccc(-n5cccn5)nc43)cc2CC1F` (some centres unmarked) [Compound 147], the half-inhibitory concentration (IC50) amounted to 131 nM in assay [1] (setting [4]) and 19.6 nM in assay [2] (setting [4]).

In the case of `Nc1ncccc1-c1nc2ccc(-n3ccc(N4CC5CC(C4)O5)n3)nc2n1-c1ccc2c(c1)CC(F)[C@@H]2NC1CCN(C(=O)C2CC2)CC1` (some centres unmarked) [Compound 552], the IC50 in assay [1] (setting [3]) is 166 nM; in assay [2] (setting [3]) it was 9.18 nM.

On to `Nc1ncccc1-c1nc2ccc(-n3cccn3)nc2n1-c1ccc2c(c1)CC[C@@H]2NC(=O)c1cccnc1-n1cccn1` [Compound 90], for which the 50% inhibitory concentration (IC50) was determined as 5850 nM in assay [1] (setting [4]) and 228 nM in assay [2] (setting [4]).

On to `C#Cc1cc(-n2nccn2)nc2c1nc(-c1cccnc1N)n2-c1ccc2c(c1)CC[C@@H]2NC(=O)c1ccc(C(F)F)nc1` [Compound 583], for which the results for the IC50 in assay [1] (setting [3]) and in assay [2] (setting [3]) were 3780 nM and 805 nM, respectively.

As for `Cc1ncccc1C(=O)N[C@H]1CCc2cc(-n3c(-c4cccnc4N)nc4ccc(-n5nccn5)nc43)ccc21` [Compound 93], the IC50 in assay [1] (setting [4]) stood at 1790 nM; in assay [2] (setting [4]), 38.8 nM.

Turning to `Nc1ncccc1-c1nc2ccc(-n3cccn3)nc2n1-c1ccc2c(c1)CC[C@@H]2NC1CCN(C(=O)[C@H]2C[C@@H]2F)CC1` [Compound 479], the IC50 in assay [1] (setting [3]) is over 10000 nM; in assay [2] (setting [3]), 89.3 nM.

(Values after patent US12624034B2, “Non-covalent modifiers of AKT1 and uses thereof” (Terremoto Biosciences, Inc., priority 2023, dated 2026).)
